Assay results from ChEMBL document CHEMBL4665792 (J Med Chem, 2020).
Active and inactive are the calls of the source. The rule behind the calls is not given here.

Columns and labels:
HT-29 [1] = experiment: Antiproliferative activity against human HT-29 cells assessed as reduction in cell viability incubated for 24 hrs by MTT assay; format: functional, cell-based; details: HT-29, 24 h
HCT-116 = experiment: Antiproliferative activity against human HCT-116 cells assessed as reduction in cell viability incubated for 24 hrs by MTT assay; format: functional, cell-based; details: HCT-116, 24 h
HepG2 = experiment: Antiproliferative activity against human HepG2 cells assessed as reduction in cell viability incubated for 24 hrs by MTT assay; format: functional, cell-based; details: HepG2, 24 h
MCF7 = experiment: Antiproliferative activity against human MCF7 cells assessed as reduction in cell viability incubated for 24 hrs by MTT assay; format: functional, cell-based; details: MCF7, 24 h
L02 = experiment: Cytotoxicity against human L02 cells assessed as cell viability incubated for 24 hrs by MTT assay; format: cell-based; details: L02, 24 h
HK-2 = experiment: Cytotoxicity against human HK2 cells assessed as cell viability incubated for 24 hrs by MTT assay; format: cell-based; details: HK-2, 24 h
[2] = Inhibition of TrxR in human HT-29 cells incubated for 30 mins in presence of insulin, NADPH and Trx by DTNB reagent based assay; format: cell-based
[3] = Inhibition of TrxR in human HT-29 cells incubated for 60 mins in presence of insulin, NADPH and Trx by DTNB reagent based assay; format: cell-based
[4] = Inhibition of TrxR in human HT-29 cells incubated for 90 mins in presence of insulin, NADPH and Trx by DTNB reagent based assay; format: cell-based
[5] = Inhibition of TrxR (unknown origin) in presence of NADPH by Ellman's method; parameters: species or system Homo sapiens
[6] = Inhibition of Escherichia coli Trx incubated for 1.5 hrs in presence of DTT and insulin
[7] = Covalent inhibition of TrxR (unknown origin) assessed as covalent bond formation incubated up to 30 mins in presence of NADPH by Ellman's method; parameters: species or system Homo sapiens
HT-29 [8] = experiment: Inhibition of TrxR in human HT-29 cells incubated for 24 hrs in presence of insulin, NADPH and Trx by DTNB reagent based assay; format: cell-based
[9] = target: T1, Thioredoxin (Homo sapiens) (UniProt P10599); experiment: Inhibition of Trx in human HT-29 cells incubated for 24 hrs in presence of insulin, NADPH and DTT; format: cell-based
T1 sequence (whole entry): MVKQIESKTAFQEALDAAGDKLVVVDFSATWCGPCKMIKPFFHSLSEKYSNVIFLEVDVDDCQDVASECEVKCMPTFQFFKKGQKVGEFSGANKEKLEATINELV

[10] = target: T2, Glutathione reductase, mitochondrial (Homo sapiens) (UniProt P00390); experiment: Inhibition of GR in human HT-29 cells incubated for 24 hrs in presence of GSSG and NADPH; format: cell-based
T2 sequence (whole entry): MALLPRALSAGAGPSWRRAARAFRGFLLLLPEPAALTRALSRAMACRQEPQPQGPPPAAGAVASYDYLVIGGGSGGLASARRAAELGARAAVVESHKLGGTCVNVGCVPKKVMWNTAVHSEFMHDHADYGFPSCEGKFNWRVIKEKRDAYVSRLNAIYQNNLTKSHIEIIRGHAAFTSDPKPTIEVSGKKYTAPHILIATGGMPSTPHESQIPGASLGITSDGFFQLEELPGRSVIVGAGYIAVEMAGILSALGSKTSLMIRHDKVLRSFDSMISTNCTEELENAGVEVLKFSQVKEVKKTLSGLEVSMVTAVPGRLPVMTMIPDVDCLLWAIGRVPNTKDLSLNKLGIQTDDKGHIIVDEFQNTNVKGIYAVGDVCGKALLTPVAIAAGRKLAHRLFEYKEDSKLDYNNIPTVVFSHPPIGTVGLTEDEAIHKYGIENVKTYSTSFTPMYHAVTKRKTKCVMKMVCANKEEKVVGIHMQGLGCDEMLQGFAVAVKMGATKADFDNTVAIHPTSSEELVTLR

HT-29 [11] = experiment: Inhibition of GPx in human HT-29 cells incubated for 24 hrs in presence of GSH, NADPH and GR measured at 10 secs interval for 4 mins; format: cell-based; details: time 1444.0 min

O=c1c(O)c(-c2cc(O)c(O)c(O)c2)oc2cc(O)cc(O)c12 [MYRICETIN]
IC50 (HT-29 [1]): > 20000 nM | IC50 (HCT-116): > 20000 nM | IC50 (HepG2): > 20000 nM | IC50 (MCF7): > 20000 nM | IC50 (L02): > 20000 nM | IC50 (HK-2): > 20000 nM | IC50 [2]: 930 nM | IC50 [3]: 720 nM | IC50 [4]: 650 nM

CC(=O)O[C@H]1C=C([C@H](C)[C@H]2CC(C)=C(C)C(=O)O2)[C@@]2(C)CC[C@H]3[C@@H](C[C@H]4O[C@]45[C@@H](O)C=CC(=O)[C@]35C)[C@]12O
IC50 (HT-29 [1]): 2480 nM | IC50 (HCT-116): 2370 nM | IC50 (HepG2): 2850 nM | IC50 (MCF7): 6320 nM | IC50 (L02): 8210 nM | IC50 (HK-2): 6410 nM | IC50 [5]: 2640 nM | IC50 [6]: > 2500 nM | IC50 [2]: 4920 nM | IC50 [3]: 3350 nM | IC50 [4]: 2640 nM | Ki [7]: 9120 nM | inhibition (HT-29 [8]): Active | inhibition [9]: Active | inhibition [10]: Active | inhibition (HT-29 [11]): Active

CC(=O)O[C@H]1C=C([C@H](C)[C@H]2CC(C)=C(C)C(=O)O2)[C@@]2(C)CC[C@H]3[C@@H](C[C@H]4O[C@]45[C@@H](OC(=O)CCC(=O)N(C)C)C=CC(=O)[C@]35C)[C@]12O
IC50 [2]: 3810 nM | IC50 [3]: 2910 nM | IC50 [4]: 2150 nM

C=CC(=O)O[C@H]1C=CC(=O)[C@]2(C)[C@H]3CC[C@]4(C)C([C@H](C)[C@H]5CC(C)=C(C)C(=O)O5)=C[C@H](OC(C)=O)[C@@]4(O)[C@@H]3C[C@H]3O[C@]132
IC50 (HT-29 [1]): 780 nM | IC50 (HCT-116): 330 nM | IC50 (HepG2): 520 nM | IC50 (MCF7): 1060 nM | IC50 [2]: 3910 nM | IC50 [3]: 2850 nM | IC50 [4]: 2060 nM

CC(=O)O[C@H]1C=C([C@H](C)[C@H]2CC(C)=C(C)C(=O)O2)[C@@]2(C)CC[C@H]3[C@@H](C[C@H]4O[C@]45[C@@H](OC(=O)C4CCCN4C(=O)OC(C)(C)C)C=CC(=O)[C@]35C)[C@]12O (stereo partly specified)
IC50 (HT-29 [1]): 1010 nM | IC50 (HCT-116): 670 nM | IC50 (HepG2): 1060 nM | IC50 (MCF7): 2100 nM

CCN(CC)C(=O)O[C@H]1C=CC(=O)[C@]2(C)[C@H]3CC[C@]4(C)C([C@H](C)[C@H]5CC(C)=C(C)C(=O)O5)=C[C@H](OC(C)=O)[C@@]4(O)[C@@H]3C[C@H]3O[C@]132
IC50 (HT-29 [1]): 750 nM | IC50 (HCT-116): 430 nM | IC50 (HepG2): 690 nM | IC50 (MCF7): 1210 nM

CC(=O)O[C@H]1C=C([C@H](C)[C@H]2CC(C)=C(C)C(=O)O2)[C@@]2(C)CC[C@H]3[C@@H](C[C@H]4O[C@]45[C@@H](OC(=O)/C=C/C(=O)N4CCOCC4)C=CC(=O)[C@]35C)[C@]12O
IC50 (HT-29 [1]): 430 nM | IC50 (HCT-116): 460 nM | IC50 (HepG2): 370 nM | IC50 (MCF7): 760 nM

CC(=O)O[C@H]1C=C([C@H](C)[C@H]2CC(C)=C(C)C(=O)O2)[C@@]2(C)CC[C@H]3[C@@H](C[C@@H](O)[C@@]4(Cl)[C@@H](O)C=CC(=O)[C@]34C)[C@]12O
IC50 (HT-29 [1]): > 20000 nM | IC50 (HCT-116): > 20000 nM | IC50 (HepG2): > 20000 nM | IC50 (MCF7): > 20000 nM

CCC(C)C(NC(=O)OC(C)(C)C)C(=O)O[C@H]1C=CC(=O)[C@]2(C)[C@H]3CC[C@]4(C)C([C@H](C)[C@H]5CC(C)=C(C)C(=O)O5)=C[C@H](OC(C)=O)[C@@]4(O)[C@@H]3C[C@H]3O[C@]132 (stereo partly specified)
IC50 (HT-29 [1]): 1080 nM | IC50 (HCT-116): 570 nM | IC50 (HepG2): 1660 nM | IC50 (MCF7): 4810 nM

CC(=O)O[C@H]1C=C([C@H](C)[C@H]2CC(C)=C(C)C(=O)O2)[C@@]2(C)CC[C@H]3[C@@H](C[C@H]4O[C@]45[C@@H](OC(=O)CCc4ccccc4)C=CC(=O)[C@]35C)[C@]12O
IC50 (HT-29 [1]): 4050 nM | IC50 (HCT-116): 5840 nM | IC50 (HepG2): 5760 nM | IC50 (MCF7): 8180 nM

CC(=O)O[C@H]1C=C([C@H](C)[C@H]2CC(C)=C(C)C(=O)O2)[C@@]2(C)CC[C@H]3[C@@H](C[C@H]4O[C@]45[C@@H](OC(=O)/C=C/c4ccco4)C=CC(=O)[C@]35C)[C@]12O
IC50 (HT-29 [1]): 450 nM | IC50 (HCT-116): 430 nM | IC50 (HepG2): 310 nM | IC50 (MCF7): 760 nM

COC(=O)O[C@H]1C=CC(=O)[C@]2(C)[C@H]3CC[C@]4(C)C([C@H](C)[C@H]5CC(C)=C(C)C(=O)O5)=C[C@H](OC(C)=O)[C@@]4(O)[C@@H]3C[C@H]3O[C@]132
IC50 (HT-29 [1]): 1790 nM | IC50 (HCT-116): 1950 nM | IC50 (HepG2): 2810 nM | IC50 (MCF7): 4330 nM

CC(=O)O[C@H]1C=C([C@H](C)[C@H]2CC(C)=C(C)C(=O)O2)[C@@]2(C)CC[C@H]3[C@@H](C[C@H]4O[C@]45[C@@H](OC(=O)C(C)NC(=O)OC(C)(C)C)C=CC(=O)[C@]35C)[C@]12O (stereo partly specified)
IC50 (HT-29 [1]): 1790 nM | IC50 (HCT-116): 1950 nM | IC50 (HepG2): 2810 nM | IC50 (MCF7): 4330 nM
